Assay results: ChEMBL document CHEMBL5325400 (Eur J Med Chem, 2023)
Calls of active or inactive are those of the source. The rule behind the calls is not given here.

Key:
HepG2 = test: Antiproliferative activity against human HepG2 cells assessed as inhibition of cell growth measured after 48 hrs by MTT assay; assay type: functional, cell-based; conditions: HepG2, 48 h
B16-F10 [1] = test: Antiproliferative activity against mouse B16-F10 cells assessed as inhibition of cell growth measured after 48 hrs by MTT assay; assay type: functional, cell-based; conditions: B16-F10, 48 h
A2780/Taxol = test: Antiproliferative activity against paclitaxel resistant human A2780/Taxol cells assessed as inhibition of cell growth incubated for 48 hrs by MTT assay; assay type: functional, cell-based
A549 [2] = test: Antiproliferative activity against human A549 cells expressing lentivirus RNAi VTI-96658 assessed as inhibition of cell growth measured after 48 hrs by MTT assay; assay type: functional, cell-based
A549 [3] = test: Antiproliferative activity against human A549 cells expressing lentivirus RNAi VTI-96659 assessed as inhibition of cell growth measured after 48 hrs by MTT assay; assay type: functional, cell-based
Tubulin (Sus scrofa) = Tubulin (Sus scrofa) (UniProt P02554+P02550); test: Inhibition of porcine brain tubulin polymerization at 10 uM measured at 1 min interval for 60 mins by fluorescence based analysis
A549 [4] = test: Induction of cell cycle arrest in human A549 cells assessed as accumulation at G2 phase at 20 nM incubated for 24 hrs by PI staining based flow cytometry (Rvb= 12.49%); assay type: functional
A549 [5] = test: Induction of cell cycle arrest in human A549 cells assessed as accumulation at G1 phase at 10 nM incubated for 24 hrs by PI staining based flow cytometry (Rvb= 65.68%); assay type: functional
A549 [6] = test: Induction of cell cycle arrest in human A549 cells assessed as accumulation at S phase at 20 nM incubated for 24 hrs by PI staining based flow cytometry (Rvb= 20.94%); assay type: functional
A549 [7] = test: Induction of cell cycle arrest in human A549 cells assessed as accumulation at S phase at 40 nM incubated for 24 hrs by PI staining based flow cytometry (Rvb= 20.94%); assay type: functional
A549 [8] = test: Induction of apoptosis in human A549 cells assessed as viable cells at 20 nM incubated for 24 hrs by annexin V-FITC/propidium iodide staining based flow cytometry analysis (reference value: 96.44%); assay type: functional; conditions: read-out: Activity
A549 [9] = test: Induction of apoptosis in human A549 cells assessed as viable cells at 40 nM incubated for 24 hrs by annexin V-FITC/propidium iodide staining based flow cytometry analysis (reference value: 96.44%); assay type: functional; conditions: read-out: Activity
A549 [10] = test: Induction of apoptosis in human A549 cells assessed as late apoptotic cells at 20 nM incubated for 24 hrs by annexin V-FITC/propidium iodide staining based flow cytometry analysis (reference value: 0.37%); assay type: functional
A549 [11] = test: Induction of apoptosis in human A549 cells assessed as late apoptotic cells at 40 nM incubated for 24 hrs by annexin V-FITC/propidium iodide staining based flow cytometry analysis (reference value: 0.37%); assay type: functional
A549 [12] = test: Induction of apoptosis in human A549 cells assessed as downregulation of Bcl-2 protein at 10 to 40 nM measured after 48 hrs by Western blot analysis; assay type: functional, cell-based; conditions: dose 10-40 nM
A549 [13] = test: Induction of apoptosis in human A549 cells assessed as upregulation of Bad protein at 10 to 40 nM measured after 48 hrs by Western blot analysis; assay type: functional, cell-based; conditions: dose 10-40 nM
A549 [14] = test: Antimigratory activity against human A549 cells assessed as inhibition of cell migration at 5 nM and incubated for 12 hrs by scratch wound healing assay (reference value: 29.5 +/- 1.34%); assay type: functional; parameters: scale not given: the % may be the effect or the level left
A549 [15] = test: Antimigratory activity against human A549 cells assessed as inhibition of cell migration at 40 nM and incubated for 12 hrs by scratch wound healing assay (reference value: 29.5 +/- 1.34%); assay type: functional; parameters: scale not given: the % may be the effect or the level left
B16-F10 [16] = test: Antimigratory activity against mouse B16-F10 cells assessed as inhibition of cell migration at 40 nM and incubated for 12 hrs by scratch wound healing assay (reference value: 81.9 +/- 0.64%); assay type: functional; parameters: scale not given: the % may be the effect or the level left
A549 [17] = test: Inhibition of cell migration in human A549 cells assessed as total number of cells migrated at 5 nM incubated for 12 hrs by crystal violet staining based transwell assay (reference value: 724 +/- 16); assay type: functional
A549 [18] = test: Inhibition of cell migration in human A549 cells assessed as total number of cells migrated at 40 nM incubated for 12 hrs by crystal violet staining based transwell assay (reference value: 724 +/- 16); assay type: functional
B16-F10 [19] = test: Inhibition of cell migration in mouse B16-F10 cells assessed as total number of cells migrated at 40 nM incubated for 12 hrs by crystal violet staining based transwell assay (reference value: 692 +/- 11); assay type: functional
[20] = Half life in Sprague-Dawley rat at 1 mg/kg, iv by LC-MS analysis; assay type: ADME, organism-based; conditions: in vivo
[21] = Cmax in Sprague-Dawley rat at 1 mg/kg, iv by LC-MS analysis; assay type: ADME, organism-based; parameters: dose 1 mg/kg, route iv; conditions: in vivo
[22] = AUC(0 to t) in Sprague-Dawley rat at 1 mg/kg, iv by LC-MS analysis; assay type: ADME, organism-based; parameters: dose 1 mg/kg, route iv; conditions: in vivo
[23] = Clearance in Sprague-Dawley rat at 1 mg/kg, iv by LC-MS analysis; assay type: ADME, organism-based; conditions: in vivo
A549 [24] = test: Antitumor activity against human A549 cells xenografted in BALB/c mouse assessed as tumor growth inhibition at 5 mg/kg, ip administered every other day for 25 days; assay type: functional; conditions: A549, 600 h, time 25 day, read-out: TGI
A549 [25] = test: Antitumor activity against human A549 cells xenografted in BALB/c mouse assessed as tumor volume at 5 mg/kg, ip administered every other day for 25 days; assay type: functional; conditions: time 25 day
A549 [26] = test: Antitumor activity against human A549 cells xenografted in BALB/c mouse assessed as tumor weight at 10 mg/kg, ip administered every other day for 25 days; assay type: functional, organism-based; conditions: time 25.0 day
A549 [27] = test: Antitumor activity against human A549 cells xenografted in BALB/c mouse assessed as tumor weight at 5 mg/kg, ip administered every other day for 25 days; assay type: functional, organism-based; conditions: time 25.0 day
[28] = Toxicity in BALB/c mouse xenografted with human A549 cells assessed as change in body weight at 10 mg/kg, ip administered every other day for 25 days; assay type: organism-based; conditions: in vivo, 600 h, time 25 day
A549 [29] = test: Antitumor activity against human A549 cells xenografted in ip dosed BALB/c mouse assessed as decrease in Ki-67 expression in tumor administered every other day for 25 days by immunohistochemistry analysis; assay type: functional, organism-based; conditions: dose 10.0 mg/kg, time 25.0 day
A549 [30] = test: Antitumor activity against human A549 cells xenografted in BALB/c mouse assessed as decrease in CD-31 expression in tumor at 10 mg/kg, ip administered every other day for 25 days by immunohistochemistry analysis; assay type: functional, organism-based; conditions: time 25.0 day
A549 [31] = test: Antitumor activity against human A549 cells xenografted in BALB/c mouse assessed as upregulation of cleaved PARP expression in tumor at 10 mg/kg, ip administered every other day for 25 days by Western blotting analysis; assay type: functional, organism-based; conditions: time 25.0 day
[32] = Toxicity in BALB/c nude mouse xenografted with human A549 cells assessed as pathological changes in kidney at 5 to 10 mg/kg, ip administered every other day for 25 days by hematoxylin and eosin staining based microscopic analysis; assay type: organism-based; conditions: in vivo, 600 h, dose 5-10 mg/kg, time 25 day
A549 [33] = test: Residual cell migration in human A549 cells at 40 nM incubated for 12 hrs by crystal violet staining based transwell assay; conditions: A549, 12 h

Sequence of Tubulin (Sus scrofa) (P02550 whole entry, looked up): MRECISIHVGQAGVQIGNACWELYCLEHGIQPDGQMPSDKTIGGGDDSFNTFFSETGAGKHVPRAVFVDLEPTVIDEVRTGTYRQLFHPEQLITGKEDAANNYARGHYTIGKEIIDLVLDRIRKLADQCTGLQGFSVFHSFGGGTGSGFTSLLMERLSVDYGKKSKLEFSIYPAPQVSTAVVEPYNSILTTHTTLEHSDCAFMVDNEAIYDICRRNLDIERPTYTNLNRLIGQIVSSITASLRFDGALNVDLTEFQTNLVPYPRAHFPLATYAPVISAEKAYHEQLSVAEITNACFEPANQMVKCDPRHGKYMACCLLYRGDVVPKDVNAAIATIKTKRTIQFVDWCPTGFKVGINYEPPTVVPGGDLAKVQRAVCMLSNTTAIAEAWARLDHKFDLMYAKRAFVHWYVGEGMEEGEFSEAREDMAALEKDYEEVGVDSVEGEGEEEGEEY
Sequence of Tubulin (Sus scrofa) (P02554 whole entry, looked up): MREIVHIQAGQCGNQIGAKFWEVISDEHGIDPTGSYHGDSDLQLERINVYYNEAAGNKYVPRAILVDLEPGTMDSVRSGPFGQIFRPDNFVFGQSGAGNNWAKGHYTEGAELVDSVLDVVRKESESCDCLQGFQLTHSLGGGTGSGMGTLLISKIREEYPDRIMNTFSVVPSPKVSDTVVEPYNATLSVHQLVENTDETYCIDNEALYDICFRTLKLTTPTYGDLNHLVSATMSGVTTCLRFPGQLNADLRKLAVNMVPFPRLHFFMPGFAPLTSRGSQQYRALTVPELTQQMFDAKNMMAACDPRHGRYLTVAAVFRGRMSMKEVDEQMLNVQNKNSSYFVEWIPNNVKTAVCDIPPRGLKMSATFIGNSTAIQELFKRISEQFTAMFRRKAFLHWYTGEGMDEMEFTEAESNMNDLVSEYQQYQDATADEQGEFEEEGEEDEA

IC50 (HepG2): 1.8 nM
IC50 (B16-F10 [1]): 3.3 nM
IC50 (A2780/Taxol): 132 nM
inhibition (Tubulin (Sus scrofa)): Active
t1/2 [20]: 13.2 min
Cmax [21]: 87.86 ng/mL
AUC(0-t) [22]: 239 ng·h/mL
clearance [23]: 69.8 mL/min/kg
Compound: COc1cccc(Nc2cc(Nc3cccc(NC(=O)C4CC4)c3)ncn2)c1
Activity (A549 [2]): Active
Activity (A549 [3]): Active
Activity (A549 [4]): 33.13%
Activity (A549 [5]): 58.47%
Activity (A549 [6]): 15.49%
Activity (A549 [7]): 15.31%
viability at 0.02 µM (A549 [8]): 76%
viability at 0.04 µM (A549 [9]): 63.6%
Activity (A549 [10]): 16.31%
Activity (A549 [11]): 26.72%
Activity (A549 [12]): Active
Activity (A549 [13]): Active
Activity (A549 [14]): 23.2%
Activity (A549 [15]): 6.1%
Activity (B16-F10 [16]): 29.1%
Activity (A549 [17]): 635
Activity (A549 [18]): 157
Activity (B16-F10 [19]): 221
inhibition in vivo at 5 mg/kg (A549 [24]): 39.1%
Activity (A549 [25]): 42.51%
Activity (A549 [26]): Active
Activity (A549 [27]): Active
Activity [28]: Non-Toxic
Activity (A549 [29]): Dose-Dependent Effect
Activity (A549 [30]): Active
Activity (A549 [31]): Active
Activity [32]: Non-Toxic
level, % of control at 0.04 µM (A549 [33]): 32.9%
